In a melting point compilation (Tetko et al.; mined from patent text by program, amines drawn as free bases though some values may be those of a salt) one finds melting point data, which are given here for 87 compounds.

As for `Cc1oc(-c2ccccc2)nc1CCOc1ccc(C[C@H](NC(=O)C(F)=Cc2ccccc2)C(=O)O)cc1`, the melting point fell in the range of 174 to 176 °C.
Under `O=C(O)c1cn2c3c(c(F)c(F)cc3c1=O)OCC2` stands greater than 300 °C; under `Cc1nc2c3c(c(C(=O)N4CCC4)cc2n1C)CCC1(Cc2ccccc2C1)N3`, 222 to 223 °C; under `N#Cc1cc(-n2c3ccccc3[nH]c(=N)[nH]c3ccccc32)ccc1Cl`, 225 to 228 °C.
For `CC1CC(=O)NN=C1c1ccc2[nH]c(-c3ccnnc3)cc2c1` (configuration not stated) the value was 293 to 295 °C.
For the compound `N#CC(C#N)=C1CC=CO1`, the melting point fell in the range of 194 to 196 °C.
For the compound `CCCC(=O)NC(=O)C(c1ccccc1)c1ccccc1`, the melting point was determined as 205 °C.
The compound `O=C(NCc1cccc(F)c1)NNC(=O)c1ccc2c(c1)CCO2` registered a melting point of 200 to 201 °C.
`COCc1ccc(OCC(=O)O)c(NC(=O)c2ccc(OCCCCc3ccccc3)cc2)c1` came in with a melting point of 126 to 129 °C.
For `CCOC(=O)C(=NOCSC)c1csc(NC=O)n1` the value was 130 to 131 °C.
Under `C[Si](C)(CCl)c1ccc(-c2ccccc2)cc1` stands 30 to 40 °C; under `O=C(O)c1cccc2c1NCCC2C(=O)O` (configuration not stated), 215 to 216 °C.
Turning to `Cc1c([N+](=O)[O-])oc2ccc(-c3ccc(CC(=O)O)cc3)cc12`, the melting point fell in the range of 229 to 230 °C.
The compound `Cc1ccc(Nc2ccccc2NC(=O)CCCc2ccc(N=C(N)c3cccs3)cc2)cc1` showed a melting point of 66 to 68 °C.
Under `O=C(O)c1ccc(C(=O)NOCC2CCc3ccccc3C2)cc1` (configuration not stated) stands 203 to 206 °C; under `Cc1nc(Sc2ccccc2)sc1C(=O)O`, 187 to 188 °C; under `Cc1c(CNS(=O)(=O)c2ccc(C(F)(F)F)cc2)nn(-c2ccc(Cl)cc2Cl)c1-c1ccc(Br)cc1`, 195 °C.
Under `CCOC(=O)c1cnc(-c2ccccc2)nc1-c1ccc([N+](=O)[O-])cc1` stands 138 to 140 °C; under `N#Cc1cnc(Nc2ccc(OCCn3nccn3)cc2)nc1-c1ccccc1`, 156 °C.
For `CC(C)n1c(=O)ccc2cnc(Nc3ccc(N4CCN(C)CC4)cc3)nc21` the value was 221 to 222 °C; for `CCCc1nc2c(C#N)ncc(C)c2[nH]1`, 239 to 242 °C; for `COc1cc(C)c2c(c1C)C(SC)C(=O)N2` (configuration not stated), 226 to 227 °C.
Regarding `COc1ccc(CS(=O)(=O)/C(=C/c2ccc(Br)cc2)C(=O)c2ccc(Br)cc2)cc1`, the melting point was in the range of 146 to 150 °C.
Under `CC(=NN(C)C(=O)c1ccccc1)c1ccncc1` stands 128 °C.
For `O=Cc1ccc(-c2ccc(-c3ccsc3)s2)s1` the value was 155 to 157 °C.
`Oc1ccc2nc(-c3cccc4ccccc34)oc2c1` returned a melting point of 185 to 187 °C.
In the case of `CC(C)c1nc(CCO)n(Cc2ccc([N+](=O)[O-])cc2)c1Sc1cc(Cl)cc(Cl)c1`, the melting point lay in the range of 142 to 145 °C.
Under `Cc1ccc(S(=O)(=O)Oc2ccc(S(=O)(=O)c3c(-c4ccccc4)noc3C(C)C)cc2)cc1` stands 148 to 149 °C.
For `NS(=O)(=O)c1ccc(NN=C2C(=O)Nc3ccc(C(=O)NCCCO)cc32)cc1`, the melting point was greater than 230 °C.
For the compound `CSCCC(=O)Nc1cc(-c2c(-c3ccc(F)c(C)c3)nc3cccnn23)ccn1`, the melting point fell in the range of 158 to 159 °C.
Under `C#CCOC(=O)Cc1c(C)nn(-c2cnccc2C)c1-c1ccccc1` stands 106 °C; under `CN(C)CCNC(=O)c1cccc2c1c(C(=O)C(=O)NC1=CC(=O)OC1)cn2Cc1ccc(Cl)cc1`, 225 to 227 °C.
Under `CN1C[C@H]2c3ccccc3CC[C@H]2CCC1=O` (relative stereo) stands 130 to 131 °C; under `COC(CNC(=O)N(N=Cc1ccccc1)c1cc(Cl)c(Cc2ccc(C(=O)c3ccc(Cl)cc3)cc2)c(Cl)c1)OC`, 158 to 160 °C; under `Cc1ccc2c(c1)N=Cc1cccc3c1N2CC3`, 77 to 78 °C.
Under `CCOC(=O)C(CC)Oc1ccc2c(-c3ccc(Cl)cc3)noc2c1` (configuration not stated) stands 73 °C; under `CC(=O)NCCC1CCc2ccn3nc(-c4ccccc4)cc3c21` (configuration not stated), 159 to 160 °C.
`Cc1cc(C(=O)NC(C)CN(C)CC(C)NC(=O)c2cc(C)cc3nc4ccccc4nc23)c2nc3ccccc3nc2c1` (configuration not stated) had a melting point of 75 to 78 °C.
For `C#CCC(CC#C)NC(=O)OC(C)(C)C` the value was 64 to 67 °C; for `Cc1oncc1C(=O)c1ccc(Cl)cc1`, 65 to 66 °C.
For `CCCCCCCCCCCNC(=S)NCCCCCCCCCCC` the value was 70 to 72 °C.
Regarding `O=C(Nc1ccccc1)c1ccc2c(c1)N(C1CC1)C=NS2(=O)=O`, the melting point was 278 to 281 °C.
For the compound `CCN1C(=O)CCC2=C1CCc1cc(F)ccc12`, the melting point amounted to 72 °C.
Under `CCCCCCCCCCCCCCCC1CN(C(=O)c2cc(OC)c(OC)c(OC)c2)CCN1C(=O)c1cc(OC)c(OC)c(OC)c1` (configuration not stated) stands 68 °C.
`Cc1cc(S(=O)(=O)NCc2ccccc2)c2c(C)ccc(C(C)C)cc1-2` came in with a melting point of 124 to 126 °C.
For the compound `CC(C)(C)OC(=O)NCC(O)c1cccs1` (configuration not stated), the melting point lay within 101 to 102 °C.
For `Cc1c(C)c(C(CO)c2ccc(C(C)C)cc2)c(O)c(C)c1Br` (configuration not stated) the value was 96 to 97 °C; for `O=C1NCN(c2ccccc2)C12CCN(CC1=Cc3ccccc3CC1)CC2`, 205 to 206 °C; for `CCCCN(Cc1ccc(-c2ccccc2-c2nnn[nH]2)cc1)c1ncncc1C(=O)OCOC(C)=O`, 65 to 69 °C.
For `Cc1cc(Oc2cc(C)c([N+](=O)[O-])cn2)n[nH]1`, the melting point was 136 to 139 °C.
In the case of `CCCc1c(COc2ccc(Cc3nnn(Cc4nnn[nH]4)n3)cc2)ccc(C(C)=O)c1O`, the melting point lay in the range of 137 to 139 °C.
Under `Cc1ncc(C(=O)NCc2cc(C(F)(F)F)cc(C(F)(F)F)c2)c(-c2ccccc2)n1` stands 188 to 190 °C; under `COc1ccc(-n2cnc3ccc(-c4nnc(CCc5cccc(C(F)(F)F)c5)o4)cc32)cc1`, 159 to 160 °C; under `Cc1cc(Nc2ccnc(Nc3ccc(S(=O)(=O)N4CCC(O)(CN(C)C)CC4)cc3)n2)ccc1F`, 233 °C.
For `Cc1ccc(S(=O)(=O)NCC(O)(Cn2cncn2)c2ccc(F)cc2F)cc1` (configuration not stated) the value was 130 to 136 °C; for `CC#Cc1ccc(-c2ccc(-c3ccc(CCCCC)cc3)c(F)c2F)cc1`, 103 °C.
For `O=C1N=NC(=O)c2c1[nH]c1cccc(Br)c21`, the melting point was greater than 260 °C.
For `CCOP(=S)(OCC)ON=C1C=CC(=C(C#N)c2ccccc2)C=C1` the value was 66 to 82 °C.
Take `O=C1C(CCO)Oc2cc([N+](=O)[O-])ccc2N1Cc1ccc([N+](=O)[O-])cc1` (configuration not stated): the melting point lay within 100 to 104 °C.
For `O=C1N(Cc2ccc(Cl)s2)c2ccc(F)cc2C12COc1cc3c(cc12)OCO3` (configuration not stated) the value was 142 to 144 °C; for `O=C(Cc1ccccc1C(=O)O)Nc1cccc(/C=C/c2nc(C3CCCCCCC3)cs2)c1`, 180 to 182 °C.
As to `COc1nc(C)cnc1NS(=O)(=O)c1cccnc1-c1ccc(C(C)(C)C)cc1`, the melting point fell in the range of 150 to 151 °C.
For `CCCCCCCCCSCCCN=C=O` the value was 86 to 88 °C; for `C#CCN1CC(=O)NC1=O`, 124 to 125 °C.
For the compound `O=C(Nc1cnc2ccccc2c1)OC1CN2CCC1CC2` (configuration not stated), the melting point was in the range of 135 to 137 °C.
Under `CNC1(c2ccccc2)CCC(c2[nH]c3ccccc3c2CCc2ccncc2)CC1` (configuration not stated) stands 224 to 227 °C; under `C[C@@H]1C(=O)C[C@H]2C[C@@H]1OO[C@@]2(C)/C=C\c1ccc(F)cc1`, 84 °C; under `Cc1c(NC(=O)c2cc3c(s2)C(O)CCC3)cccc1-c1cn(C)c(=O)c(Nc2ccc(C3C(=O)N(C)CCN3C)cc2)n1` (configuration not stated), 165 to 166 °C.
`Cc1ncccc1CN(CCn1cc(C)c2occc2c1=O)Cc1ccc2c(c1)NC(=O)C(C)(C)C(=O)N2C1CC1` came in with a melting point of 191 to 193 °C.
As for `CCC(C1=C(C)C(=O)C(C)=C(C)C1=O)c1ccc(C(C)C)cc1` (configuration not stated), the melting point lay within 61 to 63 °C.
In turn, `CCO[C@@H]1C(C(=O)Nc2ccc(Cl)cc2)=C(C)OC(OCC)(OCC)[C@H]1C` (relative stereo) displayed a melting point of 104 to 106 °C.
Compound `O=S1(=O)CCN2CCCC(c3ccc(C(F)(F)F)cc3)C2=N1` (configuration not stated) yielded a melting point of 226 to 227 °C.
Consider `OCCc1ccc(OCC2CO2)cc1` (configuration not stated), for which the melting point fell in the range of 56 to 58.5 °C.
For the compound `O=C(O)CCCCc1cccc(-c2nc(=O)c3ccccc3s2)n1`, the melting point came out at 162 °C.
Under `CC(=O)Nc1ccc(OCC(O)CN2CCC(N3CCCNC3=O)CC2)cc1` (configuration not stated) stands 218 to 221 °C; under `COc1cc2c(cc1-c1ccccc1F)NC(=O)CC(c1cccc(-n3ccnc3C)c1)=N2`, 220 to 222 °C.
For `Clc1ccc2nc(Cl)nnc2c1` the value was 113 to 115 °C; for `CCOC(=O)C(Cc1cscn1)NC(C)=O` (racemic), 58 to 62 °C; for `CCOC(=O)c1c(CS(=O)c2nc3ccccc3[nH]2)nc2cc(OC)c(OC)cc2c1-c1ccc(OC)c(OC)c1` (configuration not stated), 160 to 161 °C.
For `CC(C)NC(=O)C1=C(C(=O)Nc2cc(OC3CCCC3)c(Cl)cc2F)CCCC1` the value was 169 to 171 °C; for `CCOC(=O)c1cnc(Cc2ccccc2)c(C)c1Cl`, 233 to 245 °C; for `COC(=O)c1cc(C23CC4CC(CC(C4)C2)C3)c(O)cc1O`, 167 to 169 °C.
As to `CCN(CC)c1ccc([PH](=O)c2ccc(N(CC)CC)cc2)cc1`, the melting point was determined as 129 °C.
Regarding `O=C(CBr)c1cccc2nnsc12`, the melting point fell in the range of 155 to 157 °C.
Under `NC(=O)c1nnn(Cc2c(Cl)cccc2Cl)c1N` stands 243 to 245 °C.
For the compound `CC(C)(C)OC(=O)N1CC(CCl)c2c1cc(OCc1ccccc1)c1ncccc21` (configuration not stated), the melting point was in the range of 178 to 179 °C.
Under `CCOc1nc2cccc(C(=O)OC)c2n1Cc1ccc(-c2ccccc2-c2nc(=O)s[nH]2)cc1` stands 211 to 212 °C.

In general, melting point refers to the temperature of the solid-liquid transition.
